These are literature values, as cited in patent US11351151B2, “Compound having anticancer activity and preparation method and application” (3D Medicines (Beijing) Co., Ltd., priority 2016, dated 2022).

The conditions of this data set: liver cancer patients, phase III; cited from earlier work.

With `CNC(=O)c1cc(Oc2ccc(NC(=O)Nc3ccc(Cl)c(C(F)(F)F)c3)cc2)ccn1` [Sorafenib], the “ORR (overall response rate)” value was 6.9% and the “TTP (time to progression)” value is 4.0 months.
